{"source": "patent US9426996B2", "about": "“Use of benzoxaboroles as volatile antimicrobial agents on meats, plants, or plant parts” (AgroFresh Inc., priority 2013, dated 2016)", "test_system": "Botrytis cinerea", "assay": "in vitro inhibition assay for volatile antimicrobial compounds (12-well PDA plates)", "assay_type": "cell-based", "conditions": "14 days at 4° C.; for lowest rate with 100% control of Botrytis cinerea: in vitro, volatile", "description": "12-Well (7 milliliter (mL volume per well) microtiter plates are used for the in vitro inhibition assay for volatile antimicrobial compounds. A 3-mL volume of full-strength Potato Dextrose Agar (PDA) is added to each well. After cooling, 1 microliter (μL) of 1×10^6 per mL Botrytis cinerea spore suspension is spot pipetted to the center of the agar. For the first experiment, inoculated plates are allowed to germinate for 5 days at 4° C. For the second experiment, plates are inoculated immediately prior to volatile fungicide treatment. Small Whatman #1 filter disks (Cat. No. 1001-0155) are placed, in duplicate, on the underside of a polyethylene PCR plate sealing film.\nThe acetone is permitted to evaporate for 5 minutes. The headspace around the Botrytis cinerea inoculum is then sealed inside the well by the film with the adhering disk containing the fungicide. Plates are inverted, placed over the treated disks and sealed to prevent any of the chemical from flaking from the disk and falling onto the inoculated agar. After 14 days of storage at 4° C., cultures are evaluated for percent growth relative to control. Regardless of whether the spores had germinated for 5 days, or if the treatment commenced soon after inoculation of the plates (˜15 minutes); there is 100% control of the fungal pathogen down to 0.005 mg.\nA total of 14 antimicrobial compounds are tested using the in vitro inhibition assay described in Example 1. All 14 compounds are applied to the Whatman disks, in duplicate, in a dose dependent manner (0.31 to 0.0006 mg/disk). […] Other compounds, such as Compound C, Compound D, and Compound E conferred 100% control down to 0.023, 0.04, and 0.08 mg/disk, respectively. Results of nine compounds are summarized in Table 2, where the other five compounds show no detected activity in the ranges tested. […]"}
{"smiles": "Fc1ccc2c(c1)COB2c1ccccc1", "note": "[Compound C]", "values": [{"measurement": "Botrytis inhibition % (in vitro)", "setting": "0.0006 mg per disk", "value": 0, "unit": "%"}, {"measurement": "Botrytis inhibition % (in vitro)", "setting": "0.001 mg per disk", "value": 15, "unit": "%"}, {"measurement": "Botrytis inhibition % (in vitro)", "setting": "0.0024 mg per disk", "value": 43, "unit": "%"}, {"measurement": "Botrytis inhibition % (in vitro)", "setting": "0.005 mg per disk", "value": 63, "unit": "%"}, {"measurement": "Botrytis inhibition % (in vitro)", "setting": "0.01 mg per disk", "value": 83, "unit": "%"}, {"measurement": "Botrytis inhibition % (in vitro)", "setting": "0.023 mg per disk", "value": 100, "unit": "%"}, {"measurement": "Botrytis inhibition % (in vitro)", "setting": "0.04 mg per disk", "value": 100, "unit": "%"}, {"measurement": "Botrytis inhibition % (in vitro)", "setting": "0.08 mg per disk", "value": 100, "unit": "%"}, {"measurement": "Botrytis inhibition % (in vitro)", "setting": "0.16 mg per disk", "value": 100, "unit": "%"}, {"measurement": "Botrytis inhibition % (in vitro)", "setting": "0.31 mg per disk", "value": 100, "unit": "%"}, {"measurement": "lowest rate with 100% control of Botrytis cinerea", "value": 0.023, "unit": "mg/disk"}]}
{"smiles": "Fc1ccc2c(c1)COB2c1ccsc1", "note": "[Compound D]", "values": [{"measurement": "Botrytis inhibition % (in vitro)", "setting": "0.0006 mg per disk", "value": 0, "unit": "%"}, {"measurement": "Botrytis inhibition % (in vitro)", "setting": "0.001 mg per disk", "value": 0, "unit": "%"}, {"measurement": "Botrytis inhibition % (in vitro)", "setting": "0.0024 mg per disk", "value": 15, "unit": "%"}, {"measurement": "Botrytis inhibition % (in vitro)", "setting": "0.005 mg per disk", "value": 38, "unit": "%"}, {"measurement": "Botrytis inhibition % (in vitro)", "setting": "0.01 mg per disk", "value": 70, "unit": "%"}, {"measurement": "Botrytis inhibition % (in vitro)", "setting": "0.023 mg per disk", "value": 80, "unit": "%"}, {"measurement": "Botrytis inhibition % (in vitro)", "setting": "0.04 mg per disk", "value": 100, "unit": "%"}, {"measurement": "Botrytis inhibition % (in vitro)", "setting": "0.08 mg per disk", "value": 100, "unit": "%"}, {"measurement": "Botrytis inhibition % (in vitro)", "setting": "0.16 mg per disk", "value": 100, "unit": "%"}, {"measurement": "Botrytis inhibition % (in vitro)", "setting": "0.31 mg per disk", "value": 100, "unit": "%"}, {"measurement": "lowest rate with 100% control of Botrytis cinerea", "value": 0.04, "unit": "mg/disk"}]}
{"smiles": "Fc1ccc2c(c1)COB2/C=C/c1ccccc1", "note": "[Compound E]", "values": [{"measurement": "Botrytis inhibition % (in vitro)", "setting": "0.0006 mg per disk", "value": 13, "unit": "%"}, {"measurement": "Botrytis inhibition % (in vitro)", "setting": "0.001 mg per disk", "value": 13, "unit": "%"}, {"measurement": "Botrytis inhibition % (in vitro)", "setting": "0.0024 mg per disk", "value": 28, "unit": "%"}, {"measurement": "Botrytis inhibition % (in vitro)", "setting": "0.005 mg per disk", "value": 38, "unit": "%"}, {"measurement": "Botrytis inhibition % (in vitro)", "setting": "0.01 mg per disk", "value": 69, "unit": "%"}, {"measurement": "Botrytis inhibition % (in vitro)", "setting": "0.023 mg per disk", "value": 79, "unit": "%"}, {"measurement": "Botrytis inhibition % (in vitro)", "setting": "0.04 mg per disk", "value": 79, "unit": "%"}, {"measurement": "Botrytis inhibition % (in vitro)", "setting": "0.08 mg per disk", "value": 100, "unit": "%"}, {"measurement": "Botrytis inhibition % (in vitro)", "setting": "0.16 mg per disk", "value": 100, "unit": "%"}, {"measurement": "Botrytis inhibition % (in vitro)", "setting": "0.31 mg per disk", "value": 100, "unit": "%"}, {"measurement": "lowest rate with 100% control of Botrytis cinerea", "value": 0.08, "unit": "mg/disk"}]}
{"smiles": "FC(F)(F)c1ccc2c(c1)COB2c1ccccc1", "note": "[F]", "values": [{"measurement": "Botrytis inhibition % (in vitro)", "setting": "0.0006 mg per disk", "value": 0, "unit": "%"}, {"measurement": "Botrytis inhibition % (in vitro)", "setting": "0.001 mg per disk", "value": 0, "unit": "%"}, {"measurement": "Botrytis inhibition % (in vitro)", "setting": "0.0024 mg per disk", "value": 0, "unit": "%"}, {"measurement": "Botrytis inhibition % (in vitro)", "setting": "0.005 mg per disk", "value": 8, "unit": "%"}, {"measurement": "Botrytis inhibition % (in vitro)", "setting": "0.01 mg per disk", "value": 8, "unit": "%"}, {"measurement": "Botrytis inhibition % (in vitro)", "setting": "0.023 mg per disk", "value": 10, "unit": "%"}, {"measurement": "Botrytis inhibition % (in vitro)", "setting": "0.04 mg per disk", "value": 18, "unit": "%"}, {"measurement": "Botrytis inhibition % (in vitro)", "setting": "0.08 mg per disk", "value": 40, "unit": "%"}, {"measurement": "Botrytis inhibition % (in vitro)", "setting": "0.16 mg per disk", "value": 53, "unit": "%"}, {"measurement": "Botrytis inhibition % (in vitro)", "setting": "0.31 mg per disk", "value": 70, "unit": "%"}]}
{"smiles": "FC(F)(F)c1ccc2c(c1)COB2c1ccsc1", "note": "[G]", "values": [{"measurement": "Botrytis inhibition % (in vitro)", "setting": "0.0006 mg per disk", "value": 0, "unit": "%"}, {"measurement": "Botrytis inhibition % (in vitro)", "setting": "0.001 mg per disk", "value": 0, "unit": "%"}, {"measurement": "Botrytis inhibition % (in vitro)", "setting": "0.0024 mg per disk", "value": 0, "unit": "%"}, {"measurement": "Botrytis inhibition % (in vitro)", "setting": "0.005 mg per disk", "value": 0, "unit": "%"}, {"measurement": "Botrytis inhibition % (in vitro)", "setting": "0.01 mg per disk", "value": 0, "unit": "%"}, {"measurement": "Botrytis inhibition % (in vitro)", "setting": "0.023 mg per disk", "value": 3, "unit": "%"}, {"measurement": "Botrytis inhibition % (in vitro)", "setting": "0.04 mg per disk", "value": 13, "unit": "%"}, {"measurement": "Botrytis inhibition % (in vitro)", "setting": "0.08 mg per disk", "value": 43, "unit": "%"}, {"measurement": "Botrytis inhibition % (in vitro)", "setting": "0.16 mg per disk", "value": 78, "unit": "%"}, {"measurement": "Botrytis inhibition % (in vitro)", "setting": "0.31 mg per disk", "value": 100, "unit": "%"}]}
{"smiles": "OB1OCc2cc(C(F)(F)F)ccc21", "note": "[H]", "values": [{"measurement": "Botrytis inhibition % (in vitro)", "setting": "0.0006 mg per disk", "value": 0, "unit": "%"}, {"measurement": "Botrytis inhibition % (in vitro)", "setting": "0.001 mg per disk", "value": 0, "unit": "%"}, {"measurement": "Botrytis inhibition % (in vitro)", "setting": "0.0024 mg per disk", "value": 0, "unit": "%"}, {"measurement": "Botrytis inhibition % (in vitro)", "setting": "0.005 mg per disk", "value": 0, "unit": "%"}, {"measurement": "Botrytis inhibition % (in vitro)", "setting": "0.01 mg per disk", "value": 3, "unit": "%"}, {"measurement": "Botrytis inhibition % (in vitro)", "setting": "0.023 mg per disk", "value": 18, "unit": "%"}, {"measurement": "Botrytis inhibition % (in vitro)", "setting": "0.04 mg per disk", "value": 38, "unit": "%"}, {"measurement": "Botrytis inhibition % (in vitro)", "setting": "0.08 mg per disk", "value": 55, "unit": "%"}, {"measurement": "Botrytis inhibition % (in vitro)", "setting": "0.16 mg per disk", "value": 80, "unit": "%"}, {"measurement": "Botrytis inhibition % (in vitro)", "setting": "0.31 mg per disk", "value": 85, "unit": "%"}]}
{"smiles": "OB1OCCc2ccccc21", "note": "[J]", "values": [{"measurement": "Botrytis inhibition % (in vitro)", "setting": "0.0006 mg per disk", "value": 0, "unit": "%"}, {"measurement": "Botrytis inhibition % (in vitro)", "setting": "0.001 mg per disk", "value": 0, "unit": "%"}, {"measurement": "Botrytis inhibition % (in vitro)", "setting": "0.0024 mg per disk", "value": 0, "unit": "%"}, {"measurement": "Botrytis inhibition % (in vitro)", "setting": "0.005 mg per disk", "value": 0, "unit": "%"}, {"measurement": "Botrytis inhibition % (in vitro)", "setting": "0.01 mg per disk", "value": 0, "unit": "%"}, {"measurement": "Botrytis inhibition % (in vitro)", "setting": "0.023 mg per disk", "value": 0, "unit": "%"}, {"measurement": "Botrytis inhibition % (in vitro)", "setting": "0.04 mg per disk", "value": 5, "unit": "%"}, {"measurement": "Botrytis inhibition % (in vitro)", "setting": "0.08 mg per disk", "value": 8, "unit": "%"}, {"measurement": "Botrytis inhibition % (in vitro)", "setting": "0.16 mg per disk", "value": 13, "unit": "%"}, {"measurement": "Botrytis inhibition % (in vitro)", "setting": "0.31 mg per disk", "value": 50, "unit": "%"}]}
{"smiles": "COc1cccc2c1B(O)OC2", "note": "[K]", "values": [{"measurement": "Botrytis inhibition % (in vitro)", "setting": "0.0006 mg per disk", "value": 0, "unit": "%"}, {"measurement": "Botrytis inhibition % (in vitro)", "setting": "0.001 mg per disk", "value": 0, "unit": "%"}, {"measurement": "Botrytis inhibition % (in vitro)", "setting": "0.0024 mg per disk", "value": 0, "unit": "%"}, {"measurement": "Botrytis inhibition % (in vitro)", "setting": "0.005 mg per disk", "value": 0, "unit": "%"}, {"measurement": "Botrytis inhibition % (in vitro)", "setting": "0.01 mg per disk", "value": 0, "unit": "%"}, {"measurement": "Botrytis inhibition % (in vitro)", "setting": "0.023 mg per disk", "value": 0, "unit": "%"}, {"measurement": "Botrytis inhibition % (in vitro)", "setting": "0.04 mg per disk", "value": 0, "unit": "%"}, {"measurement": "Botrytis inhibition % (in vitro)", "setting": "0.08 mg per disk", "value": 5, "unit": "%"}, {"measurement": "Botrytis inhibition % (in vitro)", "setting": "0.16 mg per disk", "value": 29, "unit": "%"}, {"measurement": "Botrytis inhibition % (in vitro)", "setting": "0.31 mg per disk", "value": 48, "unit": "%"}]}
